Measurements as given in patent publication US20170368082A1, “FORMULATIONS OF BRINCIDOFOVIR” (priority 2016, published 2017).
Like-named read-outs stand apart in the source and are kept apart here.

Columns and labels:
[1] = IV BCV single ascending dose study: plasma BCV and CDV PK; format: in vivo, human; settings: for Tmax / clearance / half-life / AUC(0-inf) / Cmax / Vd: human; for Tmax: intravenous; for clearance / half-life / AUC(0-inf) / Cmax / Vd: plasma; for Vd: read-out: Vss
Description: Plasma PK samples were collected over 7 days and assayed by HPLC-MS. Plasma BCV PK parameters were determined by non-compartmental analysis and dose proportionality was assessed. Safety assessments were collected over 14 days.

[2] = Stability study I: physical degradation and benchmark stability study; format: physicochemical
Description: Testing of the chemical degradation was performed in an accelerated stability study setup applying heat as an accelerator/stressor. An Arrhenius analysis was carried out providing an API half-life and a degradation rate at lower temperatures. Physical stability was evaluated at the desired storage temperature (2-8° C.); a benchmark/reference condition was likewise included in the study. The setup of the study is specified below:
Physical degradation and benchmark stability study: 2-8° C., 25° C.
Physical degradation and benchmark stability study: initial, 14 and 28 days,
appearance, pH, c(BCV) recovery (HPLC), purity (HPLC), and liquid particle counting (physical degradation and benchmark stability study),
The results of the physical/benchmark stability for both tested formulations are summarized in Table 11 and Table 12, respectively. The purities of the formulations at different temperatures were determined by comparing chromatograms obtained at different temperatures and time points during the study.

[3] = Stability and confirmation analysis of stock and dose formulations; format: physicochemical
Description: Brincidofovir injectable liquid stock formulation was prepared to 15 mg/mL brincidofovir, compounded from stock solutions inclusive of three (3) steps: (1) 2× sodium phosphate buffer solution (400 mM, pH=8.0) was prepared; (2) 1.0 N sodium hydroxide solution was purchased; brincidofovir injectable liquid stock formulation (15 mg/mL brincidofovir, 200 mM sodium phosphate, pH=8.0) from solid brincidofovir, 1.0 N sodium hydroxide solution, 2× sodium phosphate buffer solution and WFI (water for injection) was prepared.
The brincidofovir injectable liquid stock formulation is stable for 28 days under refrigerated conditions (2 to 8° C.). Brincidofovir injectable liquid stock formulation was diluted with 5% dextrose to yield the desired dose concentration.
The brincidofovir stock solution of 15.0 mg/mL was stable for 24 hours when stored at room temperature (nominally 20° C.) and for 8, 14 and 28 days when stored at 2 to 8° C.
Two samples (5 mL each) were taken on the day of preparation from the middle region of each dosing formulation (including control) prepared for each week. One sample was analyzed, in duplicate, for dose confirmation analysis and one sample was retained refrigerated (2 to 8° C.) (Due to initial results outside the study acceptance plan criteria (±10% of nominal), the Group 2 retained samples were re-analyzed for Weeks 1 and 2).
Analysis of preliminary mixes confirmed that the test item was stable in the vehicle for at least 24 hours at room temperature (nominally 20° C.) and for at least 8 days at 2 to 8° C. (under storage conditions used in this study). Analyses conducted during the treatment period confirmed that with the exception of the Day 1, 1 mg/mL (Group 2) formulation, dose solutions of appropriate concentration were administered. The Day 1, 1 mg/mL dose solution was 86.7% of nominal. Without wishing to be bound by theory, it was concluded that due to interactions at the meniscus, the volume collected for dose formulation analysis may have lowered the analysis results. The volume collected for analysis was increased for subsequent weekly preparations and confirmed to be of appropriate concentration.

[4] = iv, 10 mg, plasma BCV, Cohort 1, BCV 10 mg 2 h IV infusion, n = 6
[5] = iv, 25 mg, plasma BCV, Cohort 2, BCV 25 mg 2 h IV infusion, n = 6
[6] = iv, 50 mg, plasma BCV, Cohort 3, BCV 50 mg 2 h IV infusion, n = 9
[7] = iv, 50 mg, plasma BCV, Cohort 4, BCV 50 mg 4 h IV infusion, n = 9

CCCCCCCCCCCCCCCCOCCCOP(=O)(O)CO[C@H](CO)Cn1ccc(N)nc1=O [Brincidofovir]
Geometric mean plasma BCV AUC∞ relative to oral 100 mg tablets ([1]; BCV IV 50 mg): 4.5 fold
Plasma BCV Cmax and AUCs vs dose ([1]; IV single ascending dose): increased in proportion to dose
Tmax ([1]; 50 mg, plasma BCV, 4-hour infusion (Cohort 4)): 2.5 to 4 h
Tmax ([1]; plasma BCV, Cohorts 1-3 (2-hour infusion)): 2 h
clearance [1, 4]: 127 mL/min
half-life [1, 4]: 3.42 h
AUC(0-inf) ([1]; iv, 10 mg, plasma BCV, Cohort 1, BCV 10 mg 2 h IV infusion, n = 6, geometric mean, read-out: AUC∞): 1310 ng·h/mL
Cmax ([1]; iv, 10 mg, plasma BCV, Cohort 1, BCV 10 mg 2 h IV infusion, n = 6, geometric mean, read-out: Cmax): 613 ng/mL
Vd [1, 4]: 16.4 L
clearance [1, 5]: 144 mL/min
half-life [1, 5]: 5.89 h
AUC(0-inf) ([1]; iv, 25 mg, plasma BCV, Cohort 2, BCV 25 mg 2 h IV infusion, n = 6, geometric mean, read-out: AUC∞): 2890 ng·h/mL
Cmax ([1]; iv, 25 mg, plasma BCV, Cohort 2, BCV 25 mg 2 h IV infusion, n = 6, geometric mean, read-out: Cmax): 1410 ng/mL
Vd [1, 5]: 19.8 L
clearance [1, 6]: 140 mL/min
half-life [1, 6]: 6.54 h
AUC(0-inf) ([1]; iv, 50 mg, plasma BCV, Cohort 3, BCV 50 mg 2 h IV infusion, n = 9, geometric mean, read-out: AUC∞): 5950 ng·h/mL
Cmax ([1]; iv, 50 mg, plasma BCV, Cohort 3, BCV 50 mg 2 h IV infusion, n = 9, geometric mean, read-out: Cmax): 2950 ng/mL
Vd [1, 6]: 19.5 L
clearance [1, 7]: 127 mL/min
half-life [1, 7]: 5.1 h
AUC(0-inf) ([1]; iv, 50 mg, plasma BCV, Cohort 4, BCV 50 mg 4 h IV infusion, n = 9, geometric mean, read-out: AUC∞): 6570 ng·h/mL
Cmax ([1]; iv, 50 mg, plasma BCV, Cohort 4, BCV 50 mg 4 h IV infusion, n = 9, geometric mean, read-out: Cmax): 1590 ng/mL
Vd [1, 7]: 10.8 L
AUC(0-inf) ([1]; po, 100 mg, BCV oral 100 mg tablets, read-out: Plasma BCV AUC∞): 1390 ng·h/mL
Cmax ([1]; po, 100 mg, BCV oral 100 mg tablets, read-out: Plasma BCV Cmax): 251 ng/mL
Degradation over one month ([2]; 2-8 °C): 6%
Degradation over one month ([2]; 25 °C): 8%
Purity of brincidofovir ([2]; over one month): 99%
Stable for (refrigerated) ([3]; 0.05 mg/mL and 2.0 mg/mL, 2 to 8 °C): at least 8 days
Stable for (room temperature) ([3]; 0.05 mg/mL and 2.0 mg/mL, room temperature): at least 24 hours
ANALYTICAL CONCENTRATION (% of Nominal) ([3]; dose formulation Day 1, Group 2, nominal 1 (ppm) OR (mg/mL)): 86.7 % of Nominal
ANALYTICAL CONCENTRATION (% of Nominal) ([3]; dose formulation Day 1, Group 2 Back-up, nominal 1 (ppm) OR (mg/mL)): 76.9 % of Nominal
ANALYTICAL CONCENTRATION (% of Nominal) ([3]; dose formulation Day 1, Group 2 Repeat Preparation, nominal 1 (ppm) OR (mg/mL)): 75.5 % of Nominal
ANALYTICAL CONCENTRATION (% of Nominal) ([3]; dose formulation Day 1, Group 3, nominal 4 (ppm) OR (mg/mL)): 95.7 % of Nominal
ANALYTICAL CONCENTRATION (% of Nominal) ([3]; dose formulation Day 1, Group 4, nominal 15 (ppm) OR (mg/mL)): 100.7 % of Nominal
ANALYTICAL CONCENTRATION (% of Nominal) ([3]; dose formulation Week 2, Group 2, nominal 1 (ppm) OR (mg/mL)): 90.1 % of Nominal
ANALYTICAL CONCENTRATION (% of Nominal) ([3]; dose formulation Week 2, Group 2 Back-up, nominal 1 (ppm) OR (mg/mL)): 86.8 % of Nominal
ANALYTICAL CONCENTRATION (% of Nominal) ([3]; dose formulation Week 2, Group 3, nominal 4 (ppm) OR (mg/mL)): 95.4 % of Nominal
ANALYTICAL CONCENTRATION (% of Nominal) ([3]; dose formulation Week 2, Group 4, nominal 15 (ppm) OR (mg/mL)): 102.9 % of Nominal
ANALYTICAL CONCENTRATION (% of Nominal) ([3]; dose formulation Week 3, Group 2, nominal 1 (ppm) OR (mg/mL)): 93.2 % of Nominal
ANALYTICAL CONCENTRATION (% of Nominal) ([3]; dose formulation Week 3, Group 3, nominal 4 (ppm) OR (mg/mL)): 94.8 % of Nominal
ANALYTICAL CONCENTRATION (% of Nominal) ([3]; dose formulation Week 3, Group 4, nominal 15 (ppm) OR (mg/mL)): 100.2 % of Nominal
ANALYTICAL CONCENTRATION (% of Nominal) ([3]; dose formulation Week 4, Group 2, nominal 1 (ppm) OR (mg/mL)): 92.8 % of Nominal
ANALYTICAL CONCENTRATION (% of Nominal) ([3]; dose formulation Week 4, Group 3, nominal 4 (ppm) OR (mg/mL)): 96.9 % of Nominal
ANALYTICAL CONCENTRATION (% of Nominal) ([3]; dose formulation Week 4, Group 4, nominal 15 (ppm) OR (mg/mL)): 101.0 % of Nominal
ANALYTICAL CONCENTRATION (% of Nominal) ([3]; dose formulation Week 5, Group 2, nominal 1 (ppm) OR (mg/mL)): 94.9 % of Nominal
ANALYTICAL CONCENTRATION (% of Nominal) ([3]; dose formulation Week 5, Group 3, nominal 4 (ppm) OR (mg/mL)): 97.7 % of Nominal
ANALYTICAL CONCENTRATION (% of Nominal) ([3]; dose formulation Week 5, Group 4, nominal 15 (ppm) OR (mg/mL)): 101.1 % of Nominal
